Results published in ChEMBL document CHEMBL1147525, “Structure-activity relationships of untenone A and its derivatives for inhibition of DNA polymerases” (Bioorg Med Chem Lett, 2004).

Assays:
[1] = target: DNA nucleotidylexotransferase (Homo sapiens, UniProt P04053); assay: Inhibitory activity against human terminal deoxynucleotidyltransferase
Nucleic Acid [2] = assay: Inhibitory activity against mammalian DNA polymerase beta; assay type: nucleic-acid assay
Nucleic Acid [3] = assay: Inhibitory activity against mammalian DNA polymerase alpha; assay type: nucleic-acid assay

Sequence of DNA nucleotidylexotransferase (P04053 whole entry): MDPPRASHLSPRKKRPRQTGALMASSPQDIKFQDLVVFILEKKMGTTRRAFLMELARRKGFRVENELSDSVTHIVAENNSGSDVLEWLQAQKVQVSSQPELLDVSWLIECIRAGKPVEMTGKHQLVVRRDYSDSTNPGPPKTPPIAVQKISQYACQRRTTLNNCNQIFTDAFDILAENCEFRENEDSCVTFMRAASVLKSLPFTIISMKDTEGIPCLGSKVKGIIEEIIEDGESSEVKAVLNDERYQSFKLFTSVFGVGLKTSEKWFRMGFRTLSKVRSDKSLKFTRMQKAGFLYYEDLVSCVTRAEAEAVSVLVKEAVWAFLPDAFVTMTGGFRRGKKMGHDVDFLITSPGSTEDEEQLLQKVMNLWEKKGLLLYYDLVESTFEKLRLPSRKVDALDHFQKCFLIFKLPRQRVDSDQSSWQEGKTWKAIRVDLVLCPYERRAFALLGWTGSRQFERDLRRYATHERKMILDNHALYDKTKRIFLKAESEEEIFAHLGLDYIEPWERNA

Compound: CCCCCCCCCCCCCCCCC1=C(C(=O)OC)C(=O)CC1
- IC50 [1]: 129 µM
- IC50 (Nucleic Acid [2]): 107 µM
- IC50 (Nucleic Acid [3]): 17 µM

Compound: CCCCCCCCCCCCCCCC[C@]1(OCOC)C=CC(=O)[C@H]1C(=O)OC (racemic)
- IC50 [1]: 18 µM
- IC50 (Nucleic Acid [2]): 9.3 µM
- IC50 (Nucleic Acid [3]): 5.9 µM

Compound: CCCCCCCCCCCCCCCC[C@]1(O)C=CC(=O)C1 (racemic)
- IC50 [1]: > 200 µM
- IC50 (Nucleic Acid [2]): > 200 µM
- IC50 (Nucleic Acid [3]): > 200 µM

Compound: CCCCCCCCCCCCCCCC[C@H]1C=CC(=O)[C@@H]1C(=O)OC (racemic)
- IC50 [1]: 84 µM
- IC50 (Nucleic Acid [2]): 90 µM
- IC50 (Nucleic Acid [3]): 20 µM

Compound: CCCCCCCCCCCCCCCCC1=C[C@H](C(=O)O)[C@H]2CC(C(=O)O)=C(CCCCCCCCCCCCCCCC)[C@H]2[C@H]1C(=O)OC (racemic)
- IC50 [1]: 2.5 µM
- IC50 (Nucleic Acid [2]): 3.2 µM
- IC50 (Nucleic Acid [3]): 1.9 µM

Compound: CCCCCCCCCCCCCCCC[C@]1(O)C=CC(=O)[C@H]1C(=O)OC (racemic) [UNTENONE A]
- IC50 [1]: 16 µM
- IC50 (Nucleic Acid [2]): 57 µM
- IC50 (Nucleic Acid [3]): 4.3 µM
